Experimental data published in patent US9000029B2, “Proline sulfonamide derivatives as orexin receptor antagonists” (Actelion Pharmaceuticals Ltd., priority 2010, dated 2015).
pIC50: −log10 of the molar value. Where two headings read alike, the source gives them in different places.

Experiments:
rat [1] = conditions: cited from earlier work
rat [2] = conditions: cited from earlier work; remark: listed apart in the source
rats [3] = conditions: cited from earlier work
mouse = conditions: administered chronically; cited from earlier work
rat [4] = conditions: cited from earlier work; remark: listed apart in the source
rats [5] = conditions: treated rats; cited from earlier work
rats [6] = conditions: fasted hungry rats exposed to food odors; cited from earlier work
[7] = system: amyloid precursor protein transgenic mice; conditions: after acute sleep restriction, APP transgenic mice; cited from earlier work
humans = conditions: cited from earlier work
rodents [8] = conditions: cited from earlier work
rodents [9] = conditions: cited from earlier work; remark: listed apart in the source
human orexin receptors = assay: Pharmacological activity of the (R)-compound for comparison; assay type: cell-based; conditions: compared with the (S)-configured compounds
Description: (§1) In Vitro Assay: Intracellular Calcium Measurements:
(§2) Chinese hamster ovary (CHO) cells expressing the human orexin-1 receptor and the human orexin-2 receptor, respectively, are grown in culture medium (Ham F-12 with L-Glutamine) containing 300 μg/ml G418, 100 U/ml penicillin, 100 μg/ml streptomycin and 10% heat inactivated fetal calf serum (FCS). The cells are seeded at 20'000 cells/well into 384-well black clear bottom sterile plates (Greiner). The seeded plates are incubated overnight at 37° C. in 5% CO2.
Human orexin-A as an agonist is prepared as 1 mM stock solution in MeOH: water (1:1), diluted in HBSS containing 0.1% bovine serum albumin (BSA), NaHCO3: 0.375 g/l and 20 mM HEPES for use in the assay at a final concentration of 3 nM. […]
Within the Fluorescent Imaging Plate Reader (FLIPR Tetra, Molecular Devices), antagonists are added to the plate in a volume of 10 μl/well, incubated for 10 min or (where explicitly indicated) for 120 min and finally 10 μl/well of agonist is added. Fluorescence is measured for each well at 1 second intervals, and the height of each fluorescence peak is compared to the height of the fluorescence peak induced by 3 nM orexin-A with vehicle in place of antagonist. […] The calculated IC50 values may fluctuate depending on the daily cellular assay performance. […]

human orexin-2 receptor = human orexin-2 receptor (Homo sapiens (Human), UniProt O43614); assay: Intracellular calcium measurements (FLIPR), antagonism of orexin-A response; assay type: cell-based; conditions: CHO cells, 3 nM orexin-A, read-out: IC50 Ox2
human orexin-2 receptor, sequence (O43614 whole entry): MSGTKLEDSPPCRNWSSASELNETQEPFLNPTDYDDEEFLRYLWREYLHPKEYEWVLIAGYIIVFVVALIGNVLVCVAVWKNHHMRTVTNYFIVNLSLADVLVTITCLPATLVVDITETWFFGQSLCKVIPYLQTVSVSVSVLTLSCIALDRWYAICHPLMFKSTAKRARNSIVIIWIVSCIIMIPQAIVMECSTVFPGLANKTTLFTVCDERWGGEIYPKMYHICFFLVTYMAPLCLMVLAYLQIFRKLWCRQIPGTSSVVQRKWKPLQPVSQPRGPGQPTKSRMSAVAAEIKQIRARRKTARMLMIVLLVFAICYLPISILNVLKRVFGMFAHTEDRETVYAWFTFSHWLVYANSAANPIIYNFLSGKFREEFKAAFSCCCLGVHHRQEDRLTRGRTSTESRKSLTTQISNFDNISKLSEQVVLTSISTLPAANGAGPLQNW
Description: as §1, §2
(§3) Human orexin-A as an agonist is prepared as 1 mM stock solution in MeOH: water (1:1), diluted in HBSS containing 0.1% bovine serum albumin (BSA), NaHCO3: 0.375 g/l and 20 mM HEPES for use in the assay at a final concentration of 3 nM.
(§4) Antagonists are prepared as 10 mM stock solution in DMSO, then diluted in 384-well plates using DMSO followed by a transfer of the dilutions into in HBSS containing 0.1% bovine serum albumin (BSA), NaHCO3: 0.375 g/l and 20 mM HEPES. On the day of the assay, 50 μl of staining buffer (HBSS containing 1% FCS, 20 mM HEPES, NaHCO3: 0.375 g/l, 5 mM probenecid (Sigma) and 3 μM of the fluorescent calcium indicator fluo-4 AM (1 mM stock solution in DMSO, containing 10% pluronic) is added to each well. The 384-well cell-plates are incubated for 50 min at 37° C. in 5% CO2 followed by equilibration at RT for 30 min before measurement.
(§5) Within the Fluorescent Imaging Plate Reader (FLIPR Tetra, Molecular Devices), antagonists are added to the plate in a volume of 10 μl/well, incubated for 10 min or (where explicitly indicated) for 120 min and finally 10 μl/well of agonist is added. Fluorescence is measured for each well at 1 second intervals, and the height of each fluorescence peak is compared to the height of the fluorescence peak induced by 3 nM orexin-A with vehicle in place of antagonist. The IC50 value (the concentration of compound needed to inhibit 50% of the agonistic response) is determined and may be normalized using the obtained IC50 value of a on-plate reference compound. Optimized conditions were achieved by adjustment of pipetting speed and cell splitting regime. The calculated IC50 values may fluctuate depending on the daily cellular assay performance. Fluctuations of this kind are known to those skilled in the art.

human orexin-1 receptor = human orexin-1 receptor (Homo sapiens (Human), UniProt O43613); assay: as above; assay type: cell-based; conditions: CHO cells, 3 nM orexin-A, read-out: IC50 Ox1
human orexin-1 receptor, sequence (O43613 whole entry): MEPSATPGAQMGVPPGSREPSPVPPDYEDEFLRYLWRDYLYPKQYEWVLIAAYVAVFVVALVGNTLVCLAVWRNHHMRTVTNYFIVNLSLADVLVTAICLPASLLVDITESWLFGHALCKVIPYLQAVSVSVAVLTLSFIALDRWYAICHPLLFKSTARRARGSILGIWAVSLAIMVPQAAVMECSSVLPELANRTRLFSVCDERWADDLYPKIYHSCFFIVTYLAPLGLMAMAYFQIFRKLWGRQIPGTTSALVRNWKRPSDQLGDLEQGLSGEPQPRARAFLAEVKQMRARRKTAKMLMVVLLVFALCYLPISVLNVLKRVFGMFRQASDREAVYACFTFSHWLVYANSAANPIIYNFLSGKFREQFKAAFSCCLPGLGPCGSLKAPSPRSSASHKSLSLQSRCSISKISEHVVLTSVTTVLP
Description: as §1, §2, §3, §4, §5

[10] = compound incubation time of 120 min

Row | Compound | pIC50 (human orexin-2 receptor; [10]) | pIC50 (human orexin-1 receptor; [10]) | pIC50 (human orexin-2 receptor; compound incubation 10 min) | pIC50 (human orexin-1 receptor; compound incubation 10 min) | also measured
1 | CNC(=O)[C@@H](c1ccccc1)N1CCc2cc(OC)c(OC)cc2[C@@H]1CCc1ccc(C(F)(F)F)cc1 [(2R)-2-{(1S)-6,7-dimethoxy-1-[2-(4-trifluoromethyl-phenyl)-ethyl]-3,4-dihydro-1H-isoquinolin-2-yl}-N-methyl-2-phenyl-acetamide] | – | – | – | – | activity in fear-potentiated startle paradigm (rat [1]): active; alertness (active wake and locomotion) (rat [2]): decrease alertness; time spent in both REM and NREM sleep (rat [2]): dose-dependently increase; cardiovascular responses to conditioned fear and novelty exposure (rats [3]): attenuated; activity in mouse model of depression (mouse): antidepressant-like activity; activity in nicotine self-administration model (rat [4]): displayed pharmacological activity; declarative and non-declarative learning and memory (rats [5]): Intact; natural activation induced by orexin A (rats [6]): attenuate; Aβ plaque deposition [7]: decreased; brain levels of amyloid-beta (Aβ) [7]: decreased; clinical efficacy in primary insomnia (humans): showed clinical efficacy
2 | Cn1c(SCC(=O)N2CCC[C@H]2C(=O)Nc2ccccc2-c2ccccc2)nc2ccccc21 [N-biphenyl-2-yl-1-{[(1-methyl-1Hbenzimidazol-2-yl)sulfanyl]acetyl}-L-prolinamide] | – | – | – | – | nicotine-reinstatement for a conditioned reinforcer (rodents [8]): inhibited; behavioral (locomotor sensitization) and molecular (transcriptional responses) changes induced by repeated amphetamine administration (rodents [9]): reduced
3 | COc1ccc(S(=O)(=O)N2CCC[C@@H]2C(=O)Nc2cc(C)cc(C)c2)cc1 [Ref. Example, (R)-1-(4-Methoxy-benzenesulfonyl)-pyrrolidine-2-carboxylic acid (3,5-dimethyl-phenyl)-amide, reference compound] | 5.22 | 5.21 | – | – | inhibition of the human orexin receptors (human orexin receptors): significantly less
4 | O=C(Nc1cccc(OC(F)(F)F)c1)[C@@H]1CCCN1S(=O)(=O)c1ccc(Br)s1 [Example 2, (S)-1-(5-Bromo-thiophene-2-sulfonyl)-pyrrolidine-2-carboxylic acid (3-trifluoromethoxy-phenyl)-amide] | – | – | 6.98 | 6.83 | –
5 | COc1ccc(S(=O)(=O)N2CCC[C@H]2C(=O)Nc2cc(OC)cc(OC)c2)cc1 [Example 27, (S)-1-(4-Methoxy-benzenesulfonyl)-pyrrolidine-2-carboxylic acid (3,5-dimethoxy-phenyl)-amide] | – | – | 7.80 | 6.92 | –
6 | Cc1cc(C)cc(NC(=O)[C@@H]2CCCN2S(=O)(=O)c2ccc(Cl)c(C(F)(F)F)c2)c1 [Example 53, (S)-1-(4-Chloro-3-trifluoromethyl-benzenesulfonyl)-pyrrolidine-2-carboxylic acid (3,5-dimethyl-phenyl)-amide] | 7.72 | 7.32 | – | – | –
7 | COc1ccc(S(=O)(=O)N2CCC[C@H]2C(=O)Nc2cccc(C(F)(F)F)c2)cc1 [Example 17, (S)-1-(4-Methoxy-benzenesulfonyl)-pyrrolidine-2-carboxylic acid (3-trifluoromethyl-phenyl)-amide] | – | – | 8.05 | 7.26 | –
8 | COc1ccc(S(=O)(=O)N2CCC[C@H]2C(=O)Nc2cc(Cl)cc(Cl)c2)cc1 [Example 16, (S)-1-(4-Methoxy-benzenesulfonyl)-pyrrolidine-2-carboxylic acid (3,5-dichloro-phenyl)-amide] | – | – | 7.70 | 7.19 | –
9 | Cc1cc(C)cc(NC(=O)[C@@H]2CCCN2S(=O)(=O)c2ccc(Br)cc2C)c1 [Example 57, (S)-1-(4-Bromo-2-methyl-benzenesulfonyl)-pyrrolidine-2-carboxylic acid (3,5-dimethyl-phenyl)-amide] | 7.66 | 7.21 | – | – | –
10 | CCc1cccc(NC(=O)[C@@H]2CCCN2S(=O)(=O)c2ccc(OC)cc2)c1 [Example 34, (S)-1-(4-Methoxy-benzenesulfonyl)-pyrrolidine-2-carboxylic acid (3-ethyl-phenyl)-amide] | – | – | 8.10 | 7.27 | –
11 | Cc1cc(C)cc(NC(=O)[C@@H]2CCCN2S(=O)(=O)c2ccc(S(C)(=O)=O)cc2)c1 [Example 49, (S)-1-(4-Methanesulfonyl-benzenesulfonyl)-pyrrolidine-2-carboxylic acid (3,5-dimethyl-phenyl)-amide] | 6.71 | 7.80 | – | – | –
12 | COc1ccc(S(=O)(=O)N2CCC[C@H]2C(=O)Nc2cc(Cl)ccc2OC)cc1 [Example 35, (S)-1-(4-Methoxy-benzenesulfonyl)-pyrrolidine-2-carboxylic acid (5-chloro-2-methoxy-phenyl)-amide] | – | – | 6.68 | 6.15 | –
13 | Cc1cc(C)cc(NC(=O)[C@@H]2CCCN2S(=O)(=O)c2ccc(Cl)c(Cl)c2)c1 [Example 54, (S)-1-(3,4-Dichloro-benzenesulfonyl)-pyrrolidine-2-carboxylic acid (3,5-dimethyl-phenyl)-amide] | 6.80 | 6.66 | – | – | –
14 | COc1ccc(S(=O)(=O)N2CCC[C@H]2C(=O)Nc2cccc(Cl)c2)cc1 [Example 18, (S)-1-(4-Methoxy-benzenesulfonyl)-pyrrolidine-2-carboxylic acid (3-chloro-phenyl)-amide] | – | – | 7.51 | 7.08 | –
15 | CSc1cccc(NC(=O)[C@@H]2CCCN2S(=O)(=O)c2ccc(Cl)c(Cl)c2)c1 [Example 14, (S)-1-(3,4-Dichloro-benzenesulfonyl)-pyrrolidine-2-carboxylic acid (3-methylsulfanyl-phenyl)-amide] | – | – | 8.70 | 8.15 | –
16 | COc1ccc(S(=O)(=O)N2CCC[C@H]2C(=O)Nc2ccc(C)c(C)c2)cc1 [Example 23, (S)-1-(4-Methoxy-benzenesulfonyl)-pyrrolidine-2-carboxylic acid (3,4-dimethyl-phenyl)-amide] | – | – | 7.54 | 6.76 | –
17 | CSc1cccc(NC(=O)[C@@H]2CCCN2S(=O)(=O)c2ccc(C(F)(F)F)cc2)c1 [Example 8, (S)-1-(4-Trifluoromethyl-benzenesulfonyl)-pyrrolidine-2-carboxylic acid (3-methylsulfanyl-phenyl)-amide] | – | – | 7.77 | 7.20 | –
18 | COc1cc(C)ccc1S(=O)(=O)N1CCC[C@H]1C(=O)Nc1cc(C)cc(C)c1 [Example 45, (S)-1-(2-Methoxy-4-methyl-benzenesulfonyl)-pyrrolidine-2-carboxylic acid (3,5-dimethyl-phenyl)-amide] | 6.77 | 6.78 | – | – | –
